Reference: ChEMBL document CHEMBL1142480, “Use of the X-ray structure of the beta2-adrenergic receptor for drug discovery. Part 2: Identification of active compounds” (Bioorg Med Chem Lett, 2008)

Molecular target: Beta-2 adrenergic receptor (Homo sapiens, UniProt P07550)
Sequence (P07550 whole entry): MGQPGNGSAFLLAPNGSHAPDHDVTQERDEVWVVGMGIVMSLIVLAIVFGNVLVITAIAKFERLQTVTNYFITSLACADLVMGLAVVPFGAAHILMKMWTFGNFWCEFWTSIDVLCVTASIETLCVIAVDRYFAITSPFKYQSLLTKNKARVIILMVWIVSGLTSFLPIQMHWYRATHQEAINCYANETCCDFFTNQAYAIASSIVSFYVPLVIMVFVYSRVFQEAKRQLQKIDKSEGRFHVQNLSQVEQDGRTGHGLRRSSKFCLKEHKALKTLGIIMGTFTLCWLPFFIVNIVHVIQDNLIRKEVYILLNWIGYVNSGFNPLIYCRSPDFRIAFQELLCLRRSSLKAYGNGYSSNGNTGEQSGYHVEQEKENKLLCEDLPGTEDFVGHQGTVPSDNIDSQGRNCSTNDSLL
Description: Displacement of [3H]DHA from human beta2 adrenoceptor by liquid scintillation counter

Going from `N#Cc1cc2c(OCC(O)CN3CCN(C(c4ccccc4)c4ccccc4)CC3)cccc2[nH]1` (centres undefined) to `Cc1c[nH]c2cccc(OCC(O)CN3CCN(C(c4ccccc4)c4ccccc4)CC3)c12` (centres undefined), the Ki falls from 57.3 nM to 0.311 nM (180-fold). The second binds more tightly here.

Compared with `CC(C)(C)NCC(O)COc1cccc2[nH]cc(CC(N)=O)c12` (centres undefined), `CC(C)(C)NCC(O)COc1cccc2oc3ccccc3c12` (centres undefined) is 160-fold lower in Ki: 23.5 nM for the first, 0.145 nM for the second. The second binds more tightly here.
